Where “and” joins values, the source holds several entries; their conditions need not be identical. Equal values may be shown once. Inconclusive results and toxic doses are left out.
System: L1210 leukemia ip in BDF1 mice, survival T/C
Test: NCI In Vivo Anticancer Drug Screen. Data for tumor model L1210 Leukemia (intraperitoneal) in B6D2F1 (BDF1) mice
Settings: endpoint: mean survival time, higher = longer survival
In short: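 Tumor was transplanted into mice, which were then dosed with test compound or vehicle alone. Survival was recorded for each group, and the treated figure was expressed relative to the control figure.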

[1] = dose: 100.0 mg/kg/injection, schedule: Q04DX003 (ip), vehicle: Klucel (hydroxypropylcellulose) (HPC)
[2] = dose: 200.0 mg/kg/injection, schedule: Q01DX009 (ip), vehicle: Klucel (hydroxypropylcellulose) (HPC)
[3] = dose: 200.0 mg/kg/injection, schedule: Q04DX003 (ip), vehicle: Klucel (hydroxypropylcellulose) (HPC)
[4] = dose: 400.0 mg/kg/injection, schedule: Q01DX009 (ip), vehicle: Klucel (hydroxypropylcellulose) (HPC)
[5] = dose: 400.0 mg/kg/injection, schedule: Q04DX003 (ip), vehicle: Klucel (hydroxypropylcellulose) (HPC)

## CN(C)N=Nc1cn[nH]c1C(N)=O
dose: 25.0 mg/kg/injection, schedule: Q01DX009 (ip), vehicle: Klucel (hydroxypropylcellulose) (HPC)
  T/C: 117 % of control
dose: 50.0 mg/kg/injection, schedule: Q01DX009 (ip), vehicle: Klucel (hydroxypropylcellulose) (HPC)
  T/C: 112 % of control and 117 % of control and 118 % of control
[1]
  T/C: 96 % of control and 121 % of control
dose: 100.0 mg/kg/injection, schedule: Q04DX003 (ip), vehicle: saline
  T/C: 111 % of control
dose: 178.0 mg/kg/injection, schedule: Q01DX009 (ip), vehicle: saline
  T/C: 87 % of control
[2]
  T/C: 105 % of control and 113 % of control
[3]
  T/C: 98 % of control
dose: 200.0 mg/kg/injection, schedule: Q04DX003 (ip), vehicle: saline
  T/C: 119 % of control
dose: 267.0 mg/kg/injection, schedule: Q01DX009 (ip), vehicle: saline
  T/C: 91 % of control
[4]
  T/C: 103 % of control

## ClC1(c2ccccc2)c2ccc(Br)cc2-c2cc(Br)ccc21
dose: 100.0 mg/kg/injection, schedule: Q01DX009 (ip), vehicle: Klucel (hydroxypropylcellulose) (HPC)
  T/C: 103 % of control
[1]
  T/C: 104 % of control
[2]
  T/C: 100 % of control
[3]
  T/C: 107 % of control
[4]
  T/C: 108 % of control
[5]
  T/C: 94 % of control

## [N-]=[N+]=C1C(C(=O)c2ccccc2)=NN=C1c1ccccc1
dose: 50.0 mg/kg/injection, schedule: Q04DX003 (ip), vehicle: Klucel (hydroxypropylcellulose) (HPC)
  T/C: 97 % of control
[1]
  T/C: 104 % of control
[3]
  T/C: 108 % of control

## O=NN(CCCl)C(=O)NC(Cc1ccccc1)C(=O)O (configuration not stated)
dose: 12.0 mg/kg/injection, schedule: Q01DX001 (ip), vehicle: gum acacia
  T/C: 118 % of control
dose: 28.0 mg/kg/injection, schedule: Q01DX001 (ip), vehicle: gum acacia
  T/C: 188 % of control
dose: 42.0 mg/kg/injection, schedule: Q01DX001 (ip), vehicle: gum acacia
  T/C: 195 % of control
dose: 63.0 mg/kg/injection, schedule: Q01DX001 (ip), vehicle: gum acacia
  T/C: 256 % of control
dose: 112.0 mg/kg/injection, schedule: Q01DX001 (ip), vehicle: gum acacia
  T/C: 163 % of control
dose: 168.0 mg/kg/injection, schedule: Q01DX001 (ip), vehicle: gum acacia
  T/C: 120 % of control

## Cc1c(CC(=O)O)c(=O)n(-c2ccccc2)n1C
dose: 75.0 mg/kg/injection, schedule: Q04DX003 (ip), vehicle: Klucel (hydroxypropylcellulose) (HPC)
  T/C: 105 % of control
dose: 150.0 mg/kg/injection, schedule: Q04DX003 (ip), vehicle: Klucel (hydroxypropylcellulose) (HPC)
  T/C: 101 % of control
dose: 300.0 mg/kg/injection, schedule: Q04DX003 (ip), vehicle: Klucel (hydroxypropylcellulose) (HPC)
  T/C: 104 % of control

## CN(C)c1ccc(/C=[N+](\[O-])c2cccc(Cl)c2)cc1
dose: 100.0 mg/kg/injection, schedule: Q01DX001 (ip), vehicle: Klucel (hydroxypropylcellulose) (HPC)
  T/C: 95 % of control
[1]
  T/C: 102 % of control
dose: 200.0 mg/kg/injection, schedule: Q01DX001 (ip), vehicle: Klucel (hydroxypropylcellulose) (HPC)
  T/C: 97 % of control
[3]
  T/C: 100 % of control
[5]
  T/C: 107 % of control

## CCN(CC)C(=O)C1CCC(CCc2c[nH]c3ccccc23)NC1 (configuration not stated)
dose: 100.0 mg/kg/injection, schedule: Q01DX001 (ip), vehicle: saline
  T/C: 94 % of control

## CN(C)N=Nc1ccc(S(C)(=O)=O)cc1
dose: 25.0 mg/kg/injection, schedule: Q04DX002 (ip), vehicle: saline with Tween-80
  T/C: 105 % of control
dose: 50.0 mg/kg/injection, schedule: Q04DX002 (ip), vehicle: saline with Tween-80
  T/C: 102 % of control
dose: 100.0 mg/kg/injection, schedule: Q04DX002 (ip), vehicle: saline with Tween-80
  T/C: 102 % of control and 106 % of control
dose: 200.0 mg/kg/injection, schedule: Q04DX002 (ip), vehicle: saline with Tween-80
  T/C: 116 % of control
dose: 400.0 mg/kg/injection, schedule: Q04DX002 (ip), vehicle: saline with Tween-80
  T/C: 97 % of control

## c1ccc(-n2ncc3ccccc32)cc1
dose: 50.0 mg/kg/injection, schedule: Q01DX001 (ip), vehicle: saline with Tween-80
  T/C: 100 % of control
dose: 100.0 mg/kg/injection, schedule: Q01DX001 (ip), vehicle: saline with Tween-80
  T/C: 100 % of control
dose: 200.0 mg/kg/injection, schedule: Q01DX001 (ip), vehicle: saline with Tween-80
  T/C: 96 % of control

From PubChem BioAssay AID248 (DTP/NCI, 2004)
